Measurements: ChEMBL document CHEMBL6096630, “Enhancing therapeutic efficacy in homologous recombination-proficient pancreatic cancer via the combination of PARP1-PROTAC and a BRD4 inhibitor” (Bioorg Med Chem, 2024)
pIC50: −log10 of the molar value. Active and inactive are the calls of the source. No cut-off for these calls is given here.

Key:
PANC-1 [1] = assay: Antitumor activity against human PANC-1 cells xenografted in BALB/c mouse at 40 mg/kg, ip for 4 weeks administered for 5 days consecutively and 2 days without treatment on every week in presence of JQ1 relative to control; format: functional; settings: PANC-1, 672 h, read-out: TGI
PANC-1 [2] = assay: Induction of apoptosis in human PANC-1 cells assessed as viable cells at 0.6 uM incubated for 48 hrs by Annexin V-FITC/PI staining based flow cytometry (reference value: 91.64 %); format: functional; settings: read-out: Activity
PANC-1 [3] = assay: Induction of cell cycle arrest in human PANC-1 cells assessed as accumulation at S phase at 5 uM incubated for 24 hrs by PI staining based flow cytometry (reference value: 38.94 %); format: functional
PANC-1 [4] = assay: Induction of apoptosis in human PANC-1 cells assessed as early apoptotic cells at 1.2 uM incubated for 48 hrs by Annexin V-FITC/PI staining based flow cytometry (reference value: 1.41 %); format: functional
PANC-1 [5] = assay: Induction of apoptosis in human PANC-1 cells assessed as early apoptotic cells at 5 uM incubated for 48 hrs by Annexin V-FITC/PI staining based flow cytometry (reference value: 1.41 %); format: functional
BXPC-3 = assay: Antiproliferative activity against human BXPC-3 cells expressing wild-type BRCA assessed as inhibition of cell survival incubated for 5 days by CCK8 assay; format: functional, cell-based; settings: BXPC-3, 120 h
PANC-1 [6] = assay: Induction of apoptosis in human PANC-1 cells assessed as necrotic cells at 2 uM incubated for 48 hrs by Annexin V-FITC/PI staining based flow cytometry (reference value: 3.09 %); format: functional
PANC-1 [7] = assay: Induction of apoptosis in human PANC-1 cells assessed as early apoptotic cells at 2.5 uM incubated for 48 hrs by Annexin V-FITC/PI staining based flow cytometry (reference value: 1.41 %); format: functional
[8] = Toxicity in BALB/c mouse xenografted with human PANC-1 cells assessed as drug tolerance at 40 mg/kg, ip for 4 weeks administered for 5 days consecutively and 2 days without treatment on every week; format: organism-based; settings: in vivo, 672 h
PANC-1 [9] = assay: Induction of apoptosis in human PANC-1 cells assessed as viable cells at 2 uM incubated for 48 hrs by Annexin V-FITC/PI staining based flow cytometry (reference value: 91.64 %); format: functional; settings: read-out: Activity
PANC-1 [10] = assay: Induction of cell cycle arrest in human PANC-1 cells assessed as accumulation at G2/M phase incubated for 24 hrs by PI staining based flow cytometry; format: functional; settings: dose 0.6-2 µM
PANC-1 [11] = assay: Induction of cell cycle arrest in human PANC-1 cells assessed as accumulation at G1 phase at 5 uM incubated for 24 hrs by PI staining based flow cytometry (reference value: 51.70 %); format: functional
PANC-1 [12] = assay: Induction of cell cycle arrest in human PANC-1 cells assessed as accumulation at G1 phase at 2 uM incubated for 24 hrs by PI staining based flow cytometry (reference value: 51.70 %); format: functional
[13] = Toxicity in BALB/c mouse xenografted with human PANC-1 cells assessed as animal mortality at 40 mg/kg, ip for 4 weeks administered for 5 days consecutively and 2 days without treatment on every week; format: organism-based; settings: in vivo, 672 h
PANC-1 [14] = assay: Inhibition of colony formation in human PANC-1 cells at 2 uM incubated for 14 days by crystal violet staining based analysis; format: functional, cell-based; settings: time 14.0 day
PANC-1 [15] = assay: Induction of cell cycle arrest in human PANC-1 cells assessed as accumulation at G2 phase at 2 uM incubated for 24 hrs by PI staining based flow cytometry (reference value: 9.36 %); format: functional
PANC-1 [16] = assay: Induction of apoptosis in human PANC-1 cells assessed as viable cells at 5 uM incubated for 48 hrs by Annexin V-FITC/PI staining based flow cytometry (reference value: 91.64 %); format: functional; settings: read-out: Activity
PANC-1 [17] = assay: Induction of cell cycle arrest in human PANC-1 cells assessed as accumulation at G2 phase at 0.6 uM incubated for 24 hrs by PI staining based flow cytometry (reference value: 9.36 %); format: functional
PANC-1 [18] = assay: Induction of DNA damage in human PANC-1 cells assessed as decrease in BRCA1 level at 2 uM in presence of JQ1 by Western blot analysis; format: functional, cell-based
[19] = Toxicity in BALB/c mouse xenografted with human PANC-1 cells assessed as animal morbidity at 40 mg/kg, ip for 4 weeks administered for 5 days consecutively and 2 days without treatment on every week; format: organism-based; settings: in vivo, 672 h
[20] = Toxicity in BALB/c mouse xenografted with human PANC-1 cells assessed as animal mortality at 40 mg/kg, ip for 4 weeks administered for 5 days consecutively and 2 days without treatment on every week in presence of JQ1; format: organism-based; settings: in vivo, 672 h
PANC-1 [21] = assay: Induction of apoptosis in human PANC-1 cells assessed as necrotic cells at 10 uM incubated for 48 hrs by Annexin V-FITC/PI staining based flow cytometry (reference value: 3.09 %); format: functional
PANC-1 [22] = assay: Induction of cell cycle arrest in human PANC-1 cells assessed as accumulation at S phase at 2 uM incubated for 24 hrs by PI staining based flow cytometry (reference value: 38.94 %); format: functional
PANC-1 [23] = assay: Induction of cell cycle arrest in human PANC-1 cells assessed as accumulation at G1 phase at 2 uM incubated for 24 hrs in presence of JQ1 by PI staining based flow cytometry (reference value: 51.70 %); format: functional
PANC-1 [24] = assay: Induction of apoptosis in human PANC-1 cells assessed as viable cells at 1.2 uM incubated for 48 hrs by Annexin V-FITC/PI staining based flow cytometry (reference value: 91.64 %); format: functional; settings: read-out: Activity
PANC-1 [25] = assay: Antiproliferative activity against human PANC-1 cells expressing wild-type BRCA assessed as inhibition of cell survival incubated for 5 days by CCK8 assay; format: functional, cell-based; settings: PANC-1, 120 h
PANC-1 [26] = assay: Induction of cell cycle arrest in human PANC-1 cells assessed as accumulation at G0/G1 phase at 2 uM incubated for 24 hrs in presence of JQ1 by PI staining based flow cytometry relative to control; format: functional
PANC-1 [27] = assay: Induction of apoptosis in human PANC-1 cells assessed as early apoptotic cells at 2 uM incubated for 48 hrs by Annexin V-FITC/PI staining based flow cytometry (reference value: 1.41 %); format: functional
PANC-1 [28] = assay: Induction of cell cycle arrest in human PANC-1 cells assessed as accumulation at G2 phase at 2.5 uM incubated for 24 hrs by PI staining based flow cytometry (reference value: 9.36 %); format: functional
[29] = Toxicity in BALB/c mouse xenografted with human PANC-1 cells assessed as pathological changes in spleen at 40 mg/kg, ip for 4 weeks administered for 5 days consecutively and 2 days without treatment on every week by H and E staining based analysis; format: organism-based; settings: in vivo, 672 h
PANC-1 [30] = assay: Induction of apoptosis in human PANC-1 cells assessed as late apoptotic cells at 2 uM incubated for 48 hrs by Annexin V-FITC/PI staining based flow cytometry (reference value: 3.87 %); format: functional
PANC-1 [31] = assay: Induction of apoptosis in human PANC-1 cells assessed as late apoptotic cells at 5 uM incubated for 48 hrs by Annexin V-FITC/PI staining based flow cytometry (reference value: 3.87 %); format: functional
CAPAN-1 = assay: Antiproliferative activity against human CAPAN-1 cells expressing BRCA-/- assessed as inhibition of cell survival incubated for 5 days by CCK8 assay; format: functional, cell-based; settings: CAPAN-1, 120 h

SMILES	inhibition in vivo at 40 mg/kg (PANC-1 [1])	viability at 0.6 µM (PANC-1 [2])	Activity (PANC-1 [3])	Activity (PANC-1 [4])	Activity (PANC-1 [5])	pIC50 (BXPC-3)	Activity (PANC-1 [6])	Activity (PANC-1 [7])	Activity [8]	viability at 2 µM (PANC-1 [9])	Activity (PANC-1 [10])	Activity (PANC-1 [11])	Activity (PANC-1 [12])	Activity [13]	Activity (PANC-1 [15])	Activity (PANC-1 [22])	pIC50 (PANC-1 [25])	Activity (PANC-1 [27])	Activity (PANC-1 [30])	pIC50 (CAPAN-1)	also measured
O=C1CCC(N2C(=O)c3cccc(NC(=O)CNCCCCCCCCCCC(=O)N4CCN(C(=O)c5cc(Cc6n[nH]c(=O)c7ccccc67)ccc5F)CC4)c3C2=O)C(=O)N1 (stereo unspecified)	≤ 98.5%	88.9%	42.71%	3.8%	4.76%	> 5.00	3.54%	4.13%	Non-toxic	86.3%	Dose-dependent-effect	43.66%	43.66%	Non-toxic	14.63%	41.71%	> 5.00	4.35%	5.84%	> 5.00	inhibition (PANC-1 [14]): Active; viability at 5 µM (PANC-1 [16]): 86.7%; Activity (PANC-1 [17]): 10.52%; Activity (PANC-1 [18]): Active; Activity [19]: Non-toxic; Activity [20]: Non-toxic; Activity (PANC-1 [21]): 3.83%; Activity (PANC-1 [23]): 50.25%; viability at 1.2 µM (PANC-1 [24]): 89.8%; Activity (PANC-1 [26]): 50.25%; Activity (PANC-1 [28]): 12.98%; Activity [29]: Non-toxic; Activity (PANC-1 [31]): 4.37%
Cc1sc2c(c1C)C(c1ccc(Cl)cc1)=N[C@@H](CC(=O)OC(C)(C)C)c1nnc(C)n1-2						> 5.00	6.51%			74.4%			59.44%		12.12%	28.44%	> 5.00	6.1%	14.01%	> 5.00	
O=C(c1cc(Cc2n[nH]c(=O)c3ccccc23)ccc1F)N1CCN(C(=O)C2CC2)CC1 [OLAPARIB]	80.7%	90.3%	43.96%	2.88%	4.21%	> 5.00	2.23%	2.76%	Non-toxic	89.7%	Dose-dependent-effect	40.8%	45.99%	Non-toxic	14.61%	39.4%	> 5.00	3.48%	4.61%	> 5.00	inhibition (PANC-1 [14]): Active; viability at 5 µM (PANC-1 [16]): 88.2%; Activity (PANC-1 [17]): 10.68%; Activity (PANC-1 [18]): Active; Activity [19]: Non-toxic; Activity [20]: Non-toxic; Activity (PANC-1 [21]): 3.35%; Activity (PANC-1 [23]): 58.42%; viability at 1.2 µM (PANC-1 [24]): 89.1%; Activity (PANC-1 [26]): 12.43%; Activity (PANC-1 [28]): 14.19%; Activity [29]: Non-toxic; Activity (PANC-1 [31]): 4.7%
